In patent US9174949B2, “Hedgehog inhibitors” (SELEXAGEN THERAPEUTICS, INC., priority 2010, dated 2015):

Each molecule was assayed on hedgehog pathway signaling (assay: Method A: cell differentiation assay, sonic hedgehog stimulated alkaline phosphatase activity). Conditions: Mus musculus, Shh-N 2 μg/mL, 72 hours, C3H10T1/2 or M2-10B4 cells.
Format: cell-based
Protocol: The ability of compounds described in the current invention to inhibit hedgehog pathway signaling was determined from the following cell differentiation assays (Method A, or Modified Method A as described below) in which cellular alkaline phosphatase activity is assessed in the presence of control vehicle or test compound, as previously described in the literature (Wu et al., Chemistry & Biology, 11: 1229-1238, 2004; Couve-Privat, et al., Cancer Research, 64; 3559-3565, 2004; Dwyer et al., J. Biological Chemistry, 282: 8959-8968, 2007) with modifications as described below.
Method A: Mouse C3H10T1/2 (CCL-226™) or M2-10B4 (CRL-1972™) cells obtained from the American Type Tissue Culture Collection (Maryland, USA) were cultured to 60-80% confluence in Dulbecco's modified Eagle's Medium (C3H10T1/2 cells) containing heat-inactivated 10% fetal bovine serum or RPMI-1640 media (M2-10B4 cells) containing heat-inactivated 10% fetal bovine serum. Cell cultures were maintained in 10 U/mL penicillin, 100 μg/mL streptomycin and 2 mM glutamine. Cells were then trypsinized, counted and plated into 96-well microtiter plates prior to incubation overnight at 37° C. in 5% CO2. […] Similarly, an IC90 was determined. […]
`Cc1nc(-c2ccc(NC(=O)c3ccc(S(C)(=O)=O)cc3Cl)cc2)cs1` [Example 4, 2-chloro-4-(methylsulfonyl)-N-(4-(2-methylthiazol-4-yl)phenyl)benzamide] gave an IC90 of 300 nM.

Same assay, conditions: Mus musculus, Shh-N 2 μg/mL, 72 hours, C3H10T1/2 or M2-10B4 cells, read-out: IC50 (50% inhibition of sonic hedgehog stimulated alkaline phosphatase activity)
`Cc1nc(-c2ccc(NC(=O)c3ccc(S(C)(=O)=O)cc3Cl)cc2)cs1` [Example 4, 2-chloro-4-(methylsulfonyl)-N-(4-(2-methylthiazol-4-yl)phenyl)benzamide] showed an IC50 of 63 nM.

Each molecule was assayed on hedgehog pathway signaling (assay: Modified Method A: purmorphamine stimulated alkaline phosphatase activity in C3H10T1/2 cells). Conditions: Mus musculus, C3H 10T1/2, compound at 500 nM, 100 nM purmorphamine, 72 hours, read-out: Activity Ranking (percent activity compared to control alkaline phosphatase activity).
Format: cell-based
`CS(=O)(=O)c1ccc(C(=O)Nc2ccc(-c3csc(CO)n3)cc2)c(Cl)c1` [Example 13, 2-chloro-N-(4-(2-(hydroxymethyl)thiazol-4-yl)phenyl)-4-(methylsulfonyl)benzamide] showed an activity at 0.5 µM of 51 to 75%. For `Cc1nc(-c2ccc(NC(=O)c3ccc(C#N)cc3)cc2)cs1` [Example 18], the activity at 0.5 µM was 26 to 50%. Molecule `COc1ccc(C(=O)Nc2ccc(-c3csc(C)n3)cc2)c(C)c1` [Example 16] has an activity at 0.5 µM of 0 to 25%. `CS(=O)(=O)c1ccc(C(=O)Nc2ccc(-c3cscn3)cc2)c(Cl)c1` [Example 11, 2-chloro-(4-methylsulfonyl)-N-(4-(thiazol-4-yl)phenyl)benzamide] gave an activity at 0.5 µM of 26 to 50%. In the case of `Cc1nc(-c2ccc(NC(=O)c3ccccc3S(C)(=O)=O)cc2)cs1` [Example 15], the activity at 0.5 µM is reported as 76 to 100%. In the case of `COc1ccc(C(=O)Nc2ccc(-c3csc(C)n3)cc2)c(Cl)c1` [Example 8], the activity at 0.5 µM is reported as 0 to 25%. `COc1cc(C(=O)Nc2ccc(-c3csc(C)n3)cc2)cc(OC)c1OC` [Example 2] gave an activity at 0.5 µM of 51 to 75%. For `Cc1nc(-c2ccc(N(C)C(=O)c3ccc(S(C)(=O)=O)cc3Cl)cc2)cs1` [Example 9, 2-chloro-N-methyl-4-(methylsulfonyl)-N-(4-(2-methylthiazol-4-yl)phenyl)benzamide], the activity at 0.5 µM was 76 to 100%. `Cc1nc(-c2ccc(NC(=O)c3ccc(Cl)cc3Cl)cc2)cs1` [Example 1, 2,4-dichloro-N-(4-(2-methylthiazol-4-yl)phenyl)benzamide] gave an activity at 0.5 µM of 0 to 25%. In the case of `O=C(Nc1ccc(-c2cscn2)cc1)c1ccccc1Cl` [Example 10, 2-chloro-N-(4-(thiazol-4-yl)phenyl)benzamide], the activity at 0.5 µM is reported as 26 to 50%. `Cc1nc(-c2ccc(NC(=O)c3ccc(S(C)(=O)=O)cc3Cl)cc2)cs1` [Example 4, 2-chloro-4-(methylsulfonyl)-N-(4-(2-methylthiazol-4-yl)phenyl)benzamide] gave an activity at 0.5 µM of 0 to 25%. For `COc1ccc(C(=O)Nc2ccc(-c3csc(C)n3)cc2)c(CN2CCOCC2)c1` [Example 5], the activity at 0.5 µM was 0 to 25%. `Cc1nc(-c2ccc(NC(=O)c3ccccc3Cl)cc2)cs1` [Example 14] was tested, and the activity at 0.5 µM was 0 to 25%. In the case of `COc1ccc(C(=O)Nc2ccc(-c3csc(C)n3)cc2)c(F)c1` [Example 17], the activity at 0.5 µM is reported as 0 to 25%. For `Cc1nc(-c2ccc(NC(=O)c3ccc(S(C)(=O)=O)cc3Cl)cc2Cl)cs1` [Example 7, 2-chloro-N-(3-chloro-4-(2-methylthiazol-4-yl)phenyl)-4-(methylsulfonyl)benzamide], the activity at 0.5 µM was 51 to 75%. Work on `CC(C)(O)c1nc(-c2ccc(NC(=O)c3ccc(S(C)(=O)=O)cc3Cl)cc2)cs1` [Example 12, 2-chloro-N-(4-(2-(2-hydroxypropan-2-yl)thiazol-4-yl)phenyl)-4-(methylsulfonyl)benzamide] yielded an activity at 0.5 µM of 26 to 50%. In the case of `COc1ccc(C(=O)Nc2ccc(-c3csc(C)n3)cc2)cc1` [Example 3], the activity at 0.5 µM is reported as 0 to 25%. Work on `Cc1nc(-c2ccc(NC(=O)c3ccc(S(C)(=O)=O)cc3Cl)cc2)co1` [Example 6] yielded an activity at 0.5 µM of 26 to 50%.
